Results as given in US12643853B2, “Cannabigerol proline cocrystals” (Manoira Corporation, priority 2019, dated 2026).

Tests used:
[1] = sealed container, 40° C. and 75% relative humidity, 8 weeks
Experimental: (§1) X-Ray Powder Diffraction Characterisation: X-ray powder diffraction patterns for the samples were acquired on a Bruker D8 diffractometer using CuKα radiation (40 kV, 40 mA), θ-2θ goniometer, V4 receiving slits, a Ge monochromator and a Lynxeye detector. The instrument is performance checked using a certified Corundum standard (NIST 1976). The data were collected over an angular range of 4° to 30° 2Θ using a step size of 0.05° 2Θ and a step time of 4 seconds. Samples were run under ambient conditions as flat plate specimens using powder as received. Approximately, 35 mg of the sample was gently packed into a cavity cut into polished, zero background (510) silicon wafer. The software used for data collection and analysis was Diffrac Plus XRD Commander and Diffrac Plus EVA respectively.
A study was carried out to examine the physical stability of the 1:2 cannabigerol L-proline cocrystal with respect to solid form conversion or deliquescence over time under accelerated conditions. 1:2 Cannabigerol L-proline cocrystal (50 mg) was placed in a sealed container at 40° C. and 75% relative humidity and stored under these conditions for 8 weeks. […] The sample was analysed by XRPD to observe any potential form changes.

[2] = oven at 100° C. for 20 hours
Experimental: as §1

[3] = Solid-state stability of cannabigerol Form I at 50° C.; assay type: physicochemical; conditions: oven at 50° C. for 10 minutes; for solid form by XRPD after heating and cooling: then allowed to cool
Experimental: A study was carried out to assess the stability of cannabigerol Form I under conditions of temperatures commonly reached during processing and storage. Cannabigerol Form I (50 mg) was placed in an oven at 50° C. for 10 minutes. […] The sample was allowed to cool after which time a solid was produced.

Row | Structure (SMILES) | physical state / deliquescence after storage [1] | solid form conversion by XRPD after storage ([1]; XRPD) | solid form conversion by XRPD after high temperature storage [2] | physical state after heating [3] | solid form by XRPD after heating and cooling [3] | solid form by XRPD after heating and cooling ([3]; listed as cannabigerol Form I) | physical state after heating ([3]; listed as cannabigerol Form I)
1 | CCCCCc1cc(O)c(C/C=C(\C)CCC=C(C)C)c(O)c1.O=C(O)[C@@H]1CCCN1.O=C(O)[C@@H]1CCCN1 [1:2 cannabigerol L-proline cocrystal] | completely solid with no signs of deliquescence | retained its original crystalline form | retained its original crystalline form |  |  |  | 
2 | CCCCCc1cc(O)c(C/C=C(\C)CCC=C(C)C)c(O)c1 [Cannabigerol Form I, 2-[(2E)-3,7-dimethylocta-2,6-dienyl]-5-pentyl-benzene-1,3-diol] |  |  |  | melted to produce an oil | undergone a polymorph transition to form a new polymorphic form (designated Form III) | undergone a form conversion to a previously unidentified polymorph (designated Form III) | became a liquid
